Test results from patent publication US7973056B2, “Triazole derivative or salt thereof” (Fujifilm Finechemicals Co., Ltd, priority 2008, dated 2011).
Converted amounts (≈) assume the structure as drawn.

Experiments:
[1] = test system: Candida albicans TIMM 1623; assay: Antifungal activity test (in vivo), mouse systemic infection model; settings: for T/C (%): survival time of administration group / control group x100
Description: With respect to compounds I-1, I-3 and I-6 obtained in Examples 1, 3 and 6 respectively, therapeutic effects at the time of subcutaneous administration of compounds I-1, I-3 and I-6 on a mouse systemic infection model by Candida albicans TIMM 1623 were tested.
The test was carried out using 5 animals for each of the drug administration groups and Negative control group (sterile physiological saline administration group).
Each of compounds I-1, I-3 and I-6 was dissolved in and diluted with dimethyl sulfoxide (DMSO; Wako Pure Chemical Industries, Ltd.) and then prepared into a predetermined concentration by diluting with sterile physiological saline.
As the control experiment, Fluconazole (FLCZ, Flanos intravenous drip solution 100 mg; TOYAMA CHEMICAL CO, LTD.) diluted to a predetermined concentration with sterile physiological saline was used.
On the next day of the receipt of animals, body weights of mice were measured and CP (crude protein) was intraperitoneally administered at a dose of 200 mg/kg based on the individual body weight, and then they were reared for 3 days.
Cells of C. albicans TIMM 1623 cultured overnight at 35° C. on SDA (Sabouraud dextrose agar; Eiken Chemical Co., Ltd.) plate medium were suspended in sterile physiological saline and used as the Stock solution, and a portion thereof was diluted with 10% formalin (Wako Pure Chemical Industries, Ltd.). The number of cells in the diluted liquid was counted under a biological microscope using a hemocytometer, and then an inoculum was prepared by diluting the stock solution with sterile physiological saline (about 1.5×10^5 cells/ml). By inoculating 0.2 ml of this cell suspension through caudal vein, infection was induced. In this connection, the number of viable cells in the inoculum was verified by spreading the cell suspension optionally diluted with sterile physiological saline on an SDA plate medium and then culturing at 35° C. Each of the substances to be tested, control substance or sterile physiological saline was subcutaneously administered after 2 hours of the infection and for 3 days starting on the next day of infection once a day, a total of 4 times. After measuring individual body weight on the next day of infection, CP was again administered intraperitoneally at a dose of 100 mg/kg. The number of survived mice was observed and recorded for 14 days starting on the next day of infection.
The results were shown in Table 3 below and FIGS. 1A to 1D. In the table, the administration dose of the compounds of the present invention and the comparative compound represents a mg amount per 1 kg of a mouse weight (mg/kg).
Significant deference was tested, by 5% for both sides of the levels of significance, in accordance with the Kaplan-Meier method Logrank test (comparison of multiple groups), on the survival time distribution of each of the substances to be tested and control substance administration groups and sterile physiological saline administration group. SAS release 8.2 (SAS Institute Japan) was used in the Kaplan-Meier method Logrank test. (T/C(%)=[survival time of administration group (integrated value)/survival time of control group (integrated value)]×100)

[2] = test system: Aspergillus fumigatus ATCC 1028; assay: Antifungal activity test (in vitro), MIC; format: cell-based; settings: ATCC1028
Description: Minimum inhibitory concentration (MIC) of each of the compounds obtained in Examples 1 to 12 was measured for respective fungi at MOS Pharm Service, by the methods described in Antimicrobial Agents and Chemotherapy, vol. 3, pp. 40-48 (1973), Antimicrobial Agents and Chemotherapy, vol. 33, pp. 215-222 (1989) and Antimicrobial Agents and Chemotherapy, vol. 38, pp. 2362-2368 (1994). The measuring conditions are shown in the following. In this case, Voriconazol was used as a comparative compound.
Aspergillus fumigatus ATCC 1028; Cultured at 28° C. for 2 days using potato dextrose broth, and this was used as a cell suspension.
Each of the compounds of the invention was adjusted to a concentration of 1% by weight using dimethyl sulfoxide (DMSO) and a medium similar to the respective medium used in the above-mentioned fungal culture, having a final concentration of from 0.001 to 100 μg/ml, was prepared. Each of the inoculation cell suspensions prepared by the above-mentioned methods was inoculated onto this agar plate. […] In this connection, Voriconazol was used as the comparative compound C-1.

[3] = test system: Cryptococcus neoformans ATCC 24067; assay: Antifungal activity test (in vitro), MIC; format: cell-based; settings: ATCC24067
Description: (§1) Minimum inhibitory concentration (MIC) of each of the compounds obtained in Examples 1 to 12 was measured for respective fungi at MOS Pharm Service, by the methods described in Antimicrobial Agents and Chemotherapy, vol. 3, pp. 40-48 (1973), Antimicrobial Agents and Chemotherapy, vol. 33, pp. 215-222 (1989) and Antimicrobial Agents and Chemotherapy, vol. 38, pp. 2362-2368 (1994). The measuring conditions are shown in the following. In this case, Voriconazol was used as a comparative compound. Cryptococcus neoformans ATCC 24067, Pityrosporum ovale ATCC 38593; Cultured at 37° C. for 2 day using fluid Sabouraud medium, and this was used as a cell suspension. Each of the compounds of the invention was adjusted to a concentration of 1% by weight using dimethyl sulfoxide (DMSO) and a medium similar to the respective medium used in the above-mentioned fungal culture, having a final concentration of from 0.001 to 100 μg/ml, was prepared. Each of the inoculation cell suspensions prepared by the above-mentioned methods was inoculated onto this agar plate. […] In this connection, Voriconazol was used as the comparative compound C-1.

[4] = test system: Pityrosporum ovale ATCC 38593; assay: Antifungal activity test (in vitro), MIC; format: cell-based; settings: Malassezia furfur, ATCC38593
Description: as §1

[5] = test system: Microsporum canis ATCC 36299; assay: Antifungal activity test (in vitro), MIC; format: cell-based; settings: ATCC36299
Description: as §1, with “Microsporum canis” for “Cryptococcus neoformans”, “36299;” for “24067, Pityrosporum ovale ATCC 38593;”, “30°” for “37°”, “days” for “day”

[6] = test system: Trichophyton mentagrophytes ATCC 9533; assay: Antifungal activity test (in vitro), MIC; format: cell-based; settings: ATCC9533
Description: as §1, with “Trichophyton mentagrophytes” for “Cryptococcus neoformans”, “9533;” for “24067, Pityrosporum ovale ATCC 38593;”, “28°” for “37°”, “3 days” for “2 day”

[7] = test system: Candida albicans ATCC 10231; assay: Antifungal activity test (in vitro), MIC; format: cell-based; settings: ATCC10231
Description: as §1, with “Candida albicans” for “Cryptococcus neoformans”, “10231 and” for “24067, Pityrosporum ovale”, “44858;” for “38593;”, “20 hours” for “2 day”

SMILES: OC(Cn1cncn1)(Cn1cncn1)c1ccc(F)cc1F [FLCZ, Fluconazole, reference compound]
- survival rate ([1]; 0.1 mg/kg s.c., day 0): 100
- survival rate ([1]; 0.1 mg/kg s.c., day 1): 100
- survival rate ([1]; 0.1 mg/kg s.c., day 2): 100
- survival rate ([1]; 0.1 mg/kg s.c., day 3): 60
- survival rate ([1]; 0.1 mg/kg s.c., day 4): 60
- survival rate ([1]; 0.1 mg/kg s.c., day 5): 60
- survival rate ([1]; 0.1 mg/kg s.c., day 6): 60
- survival rate ([1]; 0.1 mg/kg s.c., day 7): 40
- survival rate ([1]; 0.1 mg/kg s.c., day 8): 40
- survival rate ([1]; 0.1 mg/kg s.c., day 9): 20
- survival rate ([1]; 0.1 mg/kg s.c., day 10): 20
- survival rate ([1]; 0.1 mg/kg s.c., day 11): 20
- survival rate ([1]; 0.1 mg/kg s.c., day 12): 20
- survival rate ([1]; 0.1 mg/kg s.c., day 13): 20
- survival rate ([1]; 0.1 mg/kg s.c., day 14): 20
- T/C (%) ([1]; 0.1 mg/kg s.c.): 119%
- survival rate ([1]; 0.3 mg/kg s.c., day 0): 100
- survival rate ([1]; 0.3 mg/kg s.c., day 1): 100
- survival rate ([1]; 0.3 mg/kg s.c., day 2): 100
- survival rate ([1]; 0.3 mg/kg s.c., day 3): 100
- survival rate ([1]; 0.3 mg/kg s.c., day 4): 100
- survival rate ([1]; 0.3 mg/kg s.c., day 5): 100
- survival rate ([1]; 0.3 mg/kg s.c., day 6): 100
- survival rate ([1]; 0.3 mg/kg s.c., day 7): 80
- survival rate ([1]; 0.3 mg/kg s.c., day 8): 80
- survival rate ([1]; 0.3 mg/kg s.c., day 9): 80
- survival rate ([1]; 0.3 mg/kg s.c., day 10): 80
- survival rate ([1]; 0.3 mg/kg s.c., day 11): 80
- survival rate ([1]; 0.3 mg/kg s.c., day 12): 80
- survival rate ([1]; 0.3 mg/kg s.c., day 13): 80
- survival rate ([1]; 0.3 mg/kg s.c., day 14): 80
- T/C (%) ([1]; 0.3 mg/kg s.c.): 216%
- survival rate ([1]; 1 mg/kg s.c., day 0): 100
- survival rate ([1]; 1 mg/kg s.c., day 1): 100
- survival rate ([1]; 1 mg/kg s.c., day 2): 100
- survival rate ([1]; 1 mg/kg s.c., day 3): 100
- survival rate ([1]; 1 mg/kg s.c., day 4): 100
- survival rate ([1]; 1 mg/kg s.c., day 5): 100
- survival rate ([1]; 1 mg/kg s.c., day 6): 100
- survival rate ([1]; 1 mg/kg s.c., day 7): 100
- survival rate ([1]; 1 mg/kg s.c., day 8): 100
- survival rate ([1]; 1 mg/kg s.c., day 9): 100
- survival rate ([1]; 1 mg/kg s.c., day 10): 100
- survival rate ([1]; 1 mg/kg s.c., day 11): 100
- survival rate ([1]; 1 mg/kg s.c., day 12): 100
- survival rate ([1]; 1 mg/kg s.c., day 13): 80
- survival rate ([1]; 1 mg/kg s.c., day 14): 80
- T/C (%) ([1]; 1 mg/kg s.c.): 235%

SMILES: C[C@@H](N1CCC(c2ccc(F)cn2)CC1)[C@](O)(Cn1cncn1)c1ccc(F)cc1F [I-2, (2R,3R)-2-(2,4-difluorophenyl)-3-[4-(5-fluoropyridin-2-yl)piperidin-1-yl]-1-(1,2,4-triazol-1-yl)butan-2-ol]
- MIC [2]: 10 µg/mL (≈ 23.2 µM)
- MIC [3]: 0.3 µg/mL (≈ 0.695 µM)
- MIC [4]: 0.01 µg/mL (≈ 0.0232 µM)
- MIC [5]: 10 µg/mL (≈ 23.2 µM)
- MIC [6]: 1 µg/mL (≈ 2.32 µM)
- MIC [7]: 0.1 µg/mL (≈ 0.232 µM)
- melting point: 100 to 102 °C

SMILES: C[C@@H](n1ccc(-c2ccccn2)cc1=O)[C@](O)(Cn1cncn1)c1ccc(F)cc1F [I-8, 1′-[(1R,2R)-2-(2,4-difluorophenyl)-2-hydroxy-1-methyl-3-(1,2,4-triazol-1-yl)propyl]-2,4′-bipyridin-2′-one]
- MIC [2]: 100 µg/mL (≈ 236 µM)
- MIC [3]: 0.3 µg/mL (≈ 0.709 µM)
- MIC [4]: 1 µg/mL (≈ 2.36 µM)
- MIC [5]: 10 µg/mL (≈ 23.6 µM)
- MIC [6]: 30 µg/mL (≈ 70.9 µM)
- MIC [7]: 0.1 µg/mL (≈ 0.236 µM)

SMILES: Cc1ccc(C2=CCCN([C@H](C)[C@](O)(Cn3cncn3)c3ccc(F)cc3F)C2)nc1C [I-11, (2R,3R)-2-(2,4-difluorophenyl)-3-(5,6-dimethyl-5′,6′-dihydro-2,3′-bipyridin-1′(2′H)-yl)-1-(1,2,4-triazol-1-yl)butan-2-ol]
- MIC [2]: 100 µg/mL (≈ 228 µM)
- MIC [3]: 0.3 µg/mL (≈ 0.683 µM)
- MIC [4]: 0.1 µg/mL (≈ 0.228 µM)
- MIC [5]: 10 µg/mL (≈ 22.8 µM)
- MIC [6]: 10 µg/mL (≈ 22.8 µM)
- MIC [7]: 100 µg/mL (≈ 228 µM)
